Measured values from patent publication US10131652B2, “Pyrimidinyloxy benzene derivatives as herbicides” (E. I. DU PONT DE NEMOURS AND COMPANY, priority 2014, dated 2018).
Where two headings read alike, the source gives them in different places.

Columns and labels:
Type in all cases: in vivo
[1] = system: barnyardgrass (Echinochloa crus-galli); experiment: Test B pre-/postemergence plant response; details: Echinochloa crus-galli, 240 h, read-out: Plant response rating, Barnyardgrass; for pest or weed control at 125 g/ha: 125 g ai/ha; for pest or weed control at 500 g/ha: 500 g ai/ha; for pest or weed control at 500 g/ha / pest or weed control at 1000 g/ha: 0 to 100 scale (0 no effect, 100 complete control); for pest or weed control at 1000 g/ha: 1000 g ai/ha
Outline: (§1)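 Visual injury rating, 0 (no effect) to 100 (complete control), vs untreated controls after ~10 d greenhouse. Pre: directed soil spray after planting in loam/sand. Post: plants 2–10 cm, 1–2 leaf stage. Compound in non-phytotoxic solvent plus surfactant.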

[2] = system: corn (Zea mays); experiment: Test B pre-/postemergence plant response; details: Zea mays, 240 h; for Corn plant response rating (crop injury, 0 = no effect, 100 = complete kill) at 125 g/ha: 125 g ai/ha; for Corn plant response rating (crop injury, 0 = no effect, 100 = complete kill) at 500 g/ha: 500 g ai/ha; for Corn plant response rating (crop injury, 0 = no effect, 100 = complete kill) at 500 g/ha / Corn plant response rating (crop injury, 0 = no effect, 100 = complete kill) at 1000 g/ha: 0 to 100 scale (0 no effect, 100 complete control); for Corn plant response rating (crop injury, 0 = no effect, 100 = complete kill) at 1000 g/ha: 1000 g ai/ha
Outline: as §1

[3] = system: giant foxtail (Setaria faberii); experiment: Test B pre-/postemergence plant response; details: Setaria faberi, 240 h, read-out: Plant response rating, Foxtail, Giant; for pest or weed control at 125 g/ha: 125 g ai/ha; for pest or weed control at 500 g/ha: 500 g ai/ha; for pest or weed control at 500 g/ha / pest or weed control at 1000 g/ha: 0 to 100 scale (0 no effect, 100 complete control); for pest or weed control at 1000 g/ha: 1000 g ai/ha
Outline: as §1

[4] = system: pigweed (Amaranthus retroflexus); experiment: Test B pre-/postemergence plant response; details: Amaranthus retroflexus, 240 h, read-out: Plant response rating, Pigweed; for pest or weed control at 125 g/ha: 125 g ai/ha; for pest or weed control at 500 g/ha: 500 g ai/ha; for pest or weed control at 500 g/ha / pest or weed control at 1000 g/ha: 0 to 100 scale (0 no effect, 100 complete control); for pest or weed control at 1000 g/ha: 1000 g ai/ha
Outline: as §1

[5] = system: wheat (Triticum aestivum); experiment: Test B pre-/postemergence plant response; details: Triticum aestivum, 240 h, read-out: Plant response rating, Wheat; for plant injury at 125 g/ha: 125 g ai/ha; for plant injury at 500 g/ha: 500 g ai/ha; for plant injury at 500 g/ha / plant injury at 1000 g/ha: 0 to 100 scale (0 no effect, 100 complete control); for plant injury at 1000 g/ha: 1000 g ai/ha
Outline: as §1

[6] = system: barnyardgrass (Echinochloa crus-galli); experiment: Test C flooded paddy test plant response; details: Echinochloa crus-galli; Flood, 250 g ai/ha; scale of 0 to 100 where 0 is no effect and 100 is complete control; 13 to 15 days; read-out: Barnyardgrass plant response rating
Outline: (§2)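 Greenhouse paddy assay, 13–15 days. Treatment into 3 cm floodwater over 2-leaf plants; visual 0–100 rating against controls.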

[7] = system: ducksalad (Heteranthera limosa); experiment: Test C flooded paddy test plant response; details: Heteranthera limosa; Flood, 250 g ai/ha; scale of 0 to 100 where 0 is no effect and 100 is complete control; 13 to 15 days; read-out: Ducksalad plant response rating
Outline: as §2

[8] = system: rice (Oryza sativa); experiment: Test C flooded paddy test plant response; details: Oryza sativa; Flood, 250 g ai/ha; scale of 0 to 100 where 0 is no effect and 100 is complete control; 13 to 15 days; read-out: Rice plant response rating
Outline: as §2

[9] = system: small-flower umbrella sedge (Cyperus difformis); experiment: Test C flooded paddy test plant response; details: Cyperus difformis; Flood, 250 g ai/ha; scale of 0 to 100 where 0 is no effect and 100 is complete control; 13 to 15 days; read-out: Sedge, Umbrella plant response rating
Outline: as §2

[10] = post-emergence, postemergence, 0 to 100 scale, 0 no effect, 100 complete control
[11] = pre-emergence, Preemergence, 0 to 100 scale where 0 is no effect and 100 is complete control

Structure (SMILES)	pest or weed control at 125 g/ha [1, 10]	pest or weed control at 500 g/ha ([1]; post-emergence, Postemergence)	pest or weed control at 125 g/ha [1, 11]	pest or weed control at 500 g/ha ([1]; pre-emergence, Preemergence)	Corn plant response rating (crop injury, 0 = no effect, 100 = complete kill) at 125 g/ha [2, 10]	Corn plant response rating (crop injury, 0 = no effect, 100 = complete kill) at 500 g/ha ([2]; post-emergence, Postemergence)	Corn plant response rating (crop injury, 0 = no effect, 100 = complete kill) at 125 g/ha [2, 11]	Corn plant response rating (crop injury, 0 = no effect, 100 = complete kill) at 500 g/ha ([2]; pre-emergence, Preemergence)	pest or weed control at 125 g/ha [3, 10]	pest or weed control at 500 g/ha ([3]; post-emergence, Postemergence)	pest or weed control at 125 g/ha [3, 11]	pest or weed control at 500 g/ha ([3]; pre-emergence, Preemergence)	pest or weed control at 125 g/ha [4, 10]	pest or weed control at 500 g/ha ([4]; post-emergence, Postemergence)	pest or weed control at 125 g/ha [4, 11]	pest or weed control at 500 g/ha ([4]; pre-emergence, Preemergence)	plant injury at 125 g/ha [5, 10]	plant injury at 500 g/ha ([5]; post-emergence, Postemergence)	plant injury at 125 g/ha [5, 11]	plant injury at 500 g/ha ([5]; pre-emergence, Preemergence)	also measured
FC(F)(F)c1nccc(-c2ccccc2Oc2ncc(Br)cn2)n1 [Compound 21, 4-[2-[(5-bromo-2-pyrimidinyl)oxy]phenyl]-2-(trifluoromethyl)pyrimidine]	0%	60%	0%	50%	0%	40%	0%	0%	0%	60%	70%	100%	80%	100%	30%	90%	0%	0%	0%	0%	pest or weed control at 250 g/ha [6]: 0%; pest or weed control at 250 g/ha [7]: 0%; plant injury at 250 g/ha [8]: 0%; pest or weed control at 250 g/ha [9]: 0%
Cc1ccc(Oc2ncc(Cl)cn2)c(-c2ccc(C(F)(F)F)nc2)c1 [Compound 22, 5-chloro-2-[4-methyl-2-[6-(trifluoromethyl)-3-pyridinyl]phenoxy]pyrimidine]	0%	0%	0%	0%	0%	0%	0%	0%	0%	0%	0%	0%	0%	0%	0%	0%	0%	0%	0%	0%	pest or weed control at 250 g/ha [6]: 0%; pest or weed control at 250 g/ha [7]: 0%; plant injury at 250 g/ha [8]: 0%; pest or weed control at 250 g/ha [9]: 0%
Clc1ccc(-c2c(Cl)cccc2Oc2ncc(Cl)cn2)nc1 [Compound 23, 5-chloro-2-[3-chloro-2-(5-chloro-2-pyridinyl)phenoxy]pyrimidine]	0%	50%	0%	30%	10%	20%	0%	0%	10%	70%	20%	70%	70%	100%	50%	90%	0%	0%	0%	0%	pest or weed control at 1000 g/ha ([1]; post-emergence, Postemergence): 50%; pest or weed control at 1000 g/ha ([1]; pre-emergence, Preemergence): 40%; Corn plant response rating (crop injury, 0 = no effect, 100 = complete kill) at 1000 g/ha ([2]; post-emergence, Postemergence): 20%; Corn plant response rating (crop injury, 0 = no effect, 100 = complete kill) at 1000 g/ha ([2]; pre-emergence, Preemergence): 0%; pest or weed control at 1000 g/ha ([3]; post-emergence, Postemergence): 70%; pest or weed control at 1000 g/ha ([3]; pre-emergence, Preemergence): 100%; pest or weed control at 1000 g/ha ([4]; post-emergence, Postemergence): 100%; pest or weed control at 1000 g/ha ([4]; pre-emergence, Preemergence): 100%; plant injury at 1000 g/ha ([5]; post-emergence, Postemergence): 0%; plant injury at 1000 g/ha ([5]; pre-emergence, Preemergence): 0%; pest or weed control at 250 g/ha [6]: 0%; pest or weed control at 250 g/ha [7]: 60%; plant injury at 250 g/ha [8]: 0%; pest or weed control at 250 g/ha [9]: 40%
Cc1ccc(Oc2ncc(Cl)cn2)c(-c2ccnc(C(F)(F)F)c2)c1 [Compound 24, 5-chloro-2-[4-methyl-2-[2-(trifluoromethyl)-4-pyridinyl]phenoxy]pyrimidine]	0%	60%	10%	80%	0%	40%	0%	40%	30%	90%	20%	90%	20%	40%	0%	40%	0%	0%	0%	0%	pest or weed control at 250 g/ha [6]: 0%; pest or weed control at 250 g/ha [7]: 0%; plant injury at 250 g/ha [8]: 0%; pest or weed control at 250 g/ha [9]: 40%
